Converted amounts (≈) assume the structure as drawn. Where two headings read alike, the source gives them in different places. Positions of bridges follow the written chain, without caps; N, C: chain ends. Residues, ends and D or L forms follow the SMILES beside them. No end group written: not given here.
Tests used:
S. aureus ATCC 6538P = assay: MIC, microbroth dilution, referential strain ATCC 6538P; type: cell-based, Staphylococcus aureus; conditions: ATCC 6538P, microbroth dilution, MHB II, 5 × 10^5 CFU/mL, 18 h at 37°C, triplicate
Experimental: (§1) A total number of 24 SA strains were obtained from patients with erythrodermia and 3 reference SA ones from the American Type Culture Collection: 6538P ATCC, 9144 ATCC, and 25923 ATCC (Institute of Experimental Therapy, Wroclaw, Poland). […] Polypropylene 96-well plates (Sigma-Aldrich) were incubated for 18 h at 37°C. MIC was taken as the lowest drug concentration at which a noticeable growth was inhibited. […] The experiments were performed in triplicate.

[1] = test system: Superantigen negative S. aureus (10); assay: microbe, parasite or virus in culture; conditions: Staphylococcus aureus; for MIC50 / MIC90 / MIC: 18 h; for MIC: read-out: MIC Range
[2] = test system: Superantigen positive S. aureus (14); assay: microbe, parasite or virus in culture; conditions: Staphylococcus aureus; for MIC50 / MIC90 / MIC: 18 h; for MIC: read-out: MIC Range
[3] = test system: Superantigen negative S. aureus (10); conditions: for MBC Range / MIC 50% / MIC 90% / MIC Range: superantigen negative clinical isolates (10), triplicate; for MBC Range: more than 99.9% reduction of the initial inoculums; for MIC 50% / MIC 90% / MIC Range: microbroth dilution, MHB II, 5 × 10^5 CFU/mL, 18 h at 37°C
S. aureus ATCC 9144 = assay: MIC, microbroth dilution, referential strain ATCC 9144; type: cell-based, Staphylococcus aureus; conditions: ATCC 9144, microbroth dilution, MHB II, 5 × 10^5 CFU/mL, 18 h at 37°C, triplicate
[4] = test system: Superantigen positive S. aureus (14); conditions: for MBC Range / MIC 50% / MIC 90% / MIC Range: superantigen positive clinical isolates (14), triplicate; for MBC Range: more than 99.9% reduction of the initial inoculums; for MIC 50% / MIC 90% / MIC Range: microbroth dilution, MHB II, 5 × 10^5 CFU/mL, 18 h at 37°C
S. aureus ATCC 25923 = assay: MIC, microbroth dilution, referential strain ATCC 25923; type: cell-based, Staphylococcus aureus; conditions: ATCC 25923, microbroth dilution, MHB II, 5 × 10^5 CFU/mL, 18 h at 37°C, triplicate
Experimental: as §1

clinical isolates of SA = conditions: 18 h
[5] = Staphylococcus aureus, ATCC6538P, read-out: MIC
[6] = Staphylococcus aureus, ATCC9144, read-out: MIC
[7] = Staphylococcus aureus, ATCC25923, read-out: MIC

CCC[C@@H]1C[C@@H](C(=O)N[C@@H]([C@H]2O[C@H](SC)[C@H](O)[C@@H](O)[C@H]2O)[C@H](C)Cl)N(C)C1 [Clindamycin, clindamycin]
MIC (S. aureus ATCC 6538P; [5]): 4 µg/mL (≈ 9.41 µM)
MIC50 [1]: 32 µg/mL (≈ 75.3 µM)
MIC90 [1]: 32 µg/mL (≈ 75.3 µM)
MIC [1]: 16 to 64 µg/mL (≈ 37.6 to 151 µM)
MIC90 ([1]; read-out: MICs 90%): 32 µg/mL (≈ 75.3 µM)
MBC ([1]; read-out: MBC 50%): 32 µg/mL (≈ 75.3 µM)
MBC ([1]; read-out: MBC 90%): 64 µg/mL (≈ 151 µM)
MIC50 [2]: 64 µg/mL (≈ 151 µM)
MIC90 [2]: 512 µg/mL (≈ 1200 µM)
MIC [2]: 8 to 512 µg/mL (≈ 18.8 to 1200 µM)
MIC90 ([2]; read-out: MICs 90%): 512 µg/mL (≈ 1200 µM)
MBC ([2]; read-out: MBC 50%): 64 µg/mL (≈ 151 µM)
MBC ([2]; read-out: MBC 90%): 128 µg/mL (≈ 301 µM)
MBC Range [3]: 64 to 128 mg/L
MIC (S. aureus ATCC 9144; [6]): 2 µg/mL (≈ 4.71 µM)
MBC Range [4]: 16 to 512 mg/L
MIC (S. aureus ATCC 25923; [7]): 2 µg/mL (≈ 4.71 µM)

GLFDVIKKVASVIGGL-NH2 (C-terminus assumed) [Citropin 1.1, citropin 1.1]
MIC (S. aureus ATCC 6538P): 8 µg/mL
MBC 50% [3]: 16 mg/L
MBC 90% [3]: 64 mg/L
MIC 50% [3]: 16 mg/L
MIC 90% [3]: 32 mg/L
MIC Range [3]: 8 to 32 mg/L
MBC Range [3]: 16 to 64 mg/L
MIC (S. aureus ATCC 9144): 32 µg/mL
MBC 50% [4]: 16 mg/L
MBC 90% [4]: 64 mg/L
MIC 50% [4]: 16 mg/L
MIC 90% [4]: 32 mg/L
MIC Range [4]: 8 to 32 mg/L
MBC Range [4]: 16 to 64 mg/L
MIC (S. aureus ATCC 25923): 32 µg/mL

FLPLIGRVLSGIL-NH2 (C-terminus assumed) [Temporin A, temporin A]
MIC (S. aureus ATCC 6538P): 8 µg/mL
MBC 50% [3]: 16 mg/L
MBC 90% [3]: 32 mg/L
MIC 50% [3]: 8 mg/L
MIC 90% [3]: 16 mg/L
MIC Range [3]: 8 to 32 mg/L
MBC Range [3]: 16 to 64 mg/L
MIC (S. aureus ATCC 9144): 16 µg/mL
MBC 50% [4]: 32 mg/L
MBC 90% [4]: 64 mg/L
MIC 50% [4]: 8 mg/L
MIC 90% [4]: 16 mg/L
MIC Range [4]: 8 to 32 mg/L
MBC Range [4]: 16 to 64 mg/L
MIC (S. aureus ATCC 25923): 16 µg/mL

CC[C@H](C)[C@@H]1NC(=O)CNC(=O)[C@H](CCCNC(=N)N)NC(=O)[C@H](Cc2ccc(O)cc2)NC(=O)[C@@H]2CSSC[C@H](NC1=O)C(=O)N[C@@H](Cc1ccc(O)cc1)C(=O)N[C@@H](CCCNC(=N)N)C(=O)N[C@@H](CCCCN)C(=O)N[C@H](C(=O)N[C@@H](CCCNC(=N)N)C(N)=O)CSSC[C@H](NC(=O)[C@H](Cc1c[nH]c3ccccc13)NC(=O)[C@@H](N)CCCCN)C(=O)N[C@@H](Cc1ccccc1)C(=O)N[C@@H](CCCNC(=N)N)C(=O)N[C@@H](C(C)C)C(=O)N2 [Tachyplesin 3, tachyplesin 3] (H-KWCFRVCYRGICYRKCR-NH2; disulfide 3-16, 7-12 (inferred); N-terminus and C-terminus assumed)
MBC 50% [3]: 2 mg/L (≈ 0.895 µM)
MBC 90% [3]: 4 mg/L (≈ 1.79 µM)
MBC 50% [4]: 2 mg/L (≈ 0.895 µM)
MBC 90% [4]: 4 mg/L (≈ 1.79 µM)
MIC values (range) (clinical isolates of SA): 1 to 8 mg/L

CN(C)c1cc(NC(=O)CNC(C)(C)C)c(O)c2c1C[C@H]1C[C@H]3[C@H](N(C)C)C(O)=C(C(N)=O)C(=O)[C@@]3(O)C(O)=C1C2=O [Tigecycline, tigecycline]
MIC (S. aureus ATCC 6538P; [5]): 0.25 µg/mL (≈ 0.427 µM)
MIC50 [1]: 0.5 µg/mL (≈ 0.854 µM)
MIC90 [1]: 0.5 µg/mL (≈ 0.854 µM)
MIC [1]: 0.5 to 1 µg/mL (≈ 0.854 to 1.71 µM)
MIC90 ([1]; read-out: MICs 90%): 0.5 µg/mL (≈ 0.854 µM)
MBC ([1]; read-out: MBC 50%): 1 µg/mL (≈ 1.71 µM)
MBC ([1]; read-out: MBC 90%): 1 µg/mL (≈ 1.71 µM)
MIC50 [2]: 0.5 µg/mL (≈ 0.854 µM)
MIC90 [2]: 0.5 µg/mL (≈ 0.854 µM)
MIC [2]: 0.5 to 1 µg/mL (≈ 0.854 to 1.71 µM)
MIC90 ([2]; read-out: MICs 90%): 0.5 µg/mL (≈ 0.854 µM)
MBC ([2]; read-out: MBC 50%): 1 µg/mL (≈ 1.71 µM)
MBC ([2]; read-out: MBC 90%): 1 µg/mL (≈ 1.71 µM)
MBC Range [3]: 1 to 2 mg/L
MIC (S. aureus ATCC 9144; [6]): 0.25 µg/mL (≈ 0.427 µM)
MBC Range [4]: 1 to 2 mg/L
MIC (S. aureus ATCC 25923; [7]): 0.25 µg/mL (≈ 0.427 µM)

O=C(N[C@H](CO)[C@H](O)c1ccc([N+](=O)[O-])cc1)C(Cl)Cl [Chloramphenicol, chloramphenicol]
MIC (S. aureus ATCC 6538P; [5]): 4 µg/mL (≈ 12.4 µM)
MIC50 [1]: 4 µg/mL (≈ 12.4 µM)
MIC90 [1]: 32 µg/mL (≈ 99 µM)
MIC [1]: 2 to 32 µg/mL (≈ 6.19 to 99 µM)
MIC90 ([1]; read-out: MICs 90%): 32 µg/mL (≈ 99 µM)
MBC ([1]; read-out: MBC 50%): 8 µg/mL (≈ 24.8 µM)
MBC ([1]; read-out: MBC 90%): 32 µg/mL (≈ 99 µM)
MIC50 [2]: 8 µg/mL (≈ 24.8 µM)
MIC90 [2]: 64 µg/mL (≈ 198 µM)
MIC [2]: 4 to 128 µg/mL (≈ 12.4 to 396 µM)
MIC90 ([2]; read-out: MICs 90%): 64 µg/mL (≈ 198 µM)
MBC ([2]; read-out: MBC 50%): 16 µg/mL (≈ 49.5 µM)
MBC ([2]; read-out: MBC 90%): 128 µg/mL (≈ 396 µM)
MBC Range [3]: 8 to 32 mg/L
MIC (S. aureus ATCC 9144; [6]): 4 µg/mL (≈ 12.4 µM)
MBC Range [4]: 8 to 128 mg/L
MIC (S. aureus ATCC 25923; [7]): 4 µg/mL (≈ 12.4 µM)

O=C(O)c1cn(C2CC2)c2cc(N3CCNCC3)c(F)cc2c1=O [Ciprofloxacin, ciprofloxacin]
MIC (S. aureus ATCC 6538P; [5]): 1 µg/mL (≈ 3.02 µM)
MIC (S. aureus ATCC 25923; [7]): 1 µg/mL (≈ 3.02 µM)
